According to US20250163059A1, “HETEROCYCLIC KINASE INHIBITORS” (Incyte Corporation, priority 2023, published 2025):

Experiments:
[1] = target: T1, catalytic domain (JH1) of JAK2 protein (Homo sapiens, UniProt O60674); test: JAK2 (JH1) Enzymatic Assay at ATP=Km (30 μM), TR-FRET; type: biochemical; conditions: 30 μM ATP (=Km), 60 min at 25° C., read-out: V617F ENZ 30 μM
T1 construct: phosphorylated on the tyrosine residue by catalytic domain (JH1) of JAK2 protein; purchased BPS 40450
Method: Example A. JAK2 (JH1) Enzymatic Assay at ATP=Km (30 μM)
Inhibitor potency was determined in TR-FRET assay, which measures HTRF signal generated as a result of Eu-labeled anti-phosphotyrosine antibody binding to Biotin-labeled peptide, phosphorylated on the tyrosine residue by catalytic domain (JH1) of JAK2 protein in the presence of ATP-Mg and Allophycocyanin-streptavidin (APC-SA). JH1 domain of JAK2 protein was purchased from BPS (#40450), Eu-W1204-labeled Anti-Phosphotyrosine Antibody (PY-20) and SureLight Allophycocyanin-streptavidin were purchased from PerkinElmer (#AD0067 and #AD0201). Peptide Biot-EQEDEPEGDYFEWLEES-amide (SEQ ID NO.: 1) was purchased from Quality Controlled Biochemicals, MA (Q307-166). Assay buffer consisted of 50 mM Tris, pH=7.5, 10 mM MgCl2, 0.01% Brij-35, 0.1% BSA, 1 mM EGTA, 5% Glycerol and 5 mM DTT. To assess the inhibition of the enzymatic activity, compound was serially diluted in DMSO and a volume of 0.1 μL was transferred to the wells of a black regular volume 384-well plate (Greiner #781076) using Echo Liquid Handler (Labcyte Inc.). Positive and Negative control wells contained 0.1 μL of DMSO.
Enzyme (catalytic domain JH1 of JAK2) was diluted in assay buffer, and the Multidrop Combi liquid handler (Thermo Scientific) was used to dispense 10 μL to each well (except positive control wells, to which 10 μL of assay buffer were dispensed instead of protein).
Plate was centrifuged and reaction was started by addition of 10 μL of substrate solution containing biotinylated peptide and ATP to all wells. Plate was again centrifuged and enzymatic reaction was allowed to proceed for 60 min. at 25° C. Final concentrations in the assay were as follows: 0.02 nM protein, 30 uM ATP, 0.5 uM biotinylated peptide. Reaction was stopped by addition of 10 μL of solution, containing 45 mM EDTA, 144 nM APC/225 nM Streptavidin, and 4.5 nM Eu-Ab in detection buffer: 50 mM Tris, pH=7.8, 150 mM NaCl, 0.5 mg/ml BSA.
Plate was centrifuged and incubated for 30 min. at room temperature. HTRF signal was measured on PHERAstar plate reader instrument (BMG Labtech) with excitation at 337 nm and emissions at 620 nm and 665 nm. Data analysis tools integrated in Genedata Screener software were used to analyze the results. Raw data was normalized to percent of vehicle (DMSO) Negative control, after subtracting no-enzyme Positive inhibitor control. The IC50 values were derived by fitting the data to a four parameter logistic equation producing a sigmoidal dose-response curve using the following equation: Y=Bottom+(Top−Bottom)/(1+10^((Log IC50−X)*Hill slope)) where X is the logarithm of inhibitor concentration and Y is the response.

[2] = target: T2, pseudo-kinase domain (JH2) of human V617F mutant JAK2 (Homo sapiens, UniProt O60674, F794H/V617F/W659A/W777A); test: JAK2 LanthaScreen JH2-V617F Binding Assay; conditions: 50 nM Fluorescent JAK2-JH2 Tracer, 1 hour at 25° C., read-out: JH2 BIND V617F
T2 construct: pseudo-kinase domain (JH2, amino-acids 536-812 with 3 surface mutations W659A, W777A, F794H); purchased BPS Bioscience 79498; host or cells: baculovirus expression system
Method: Example B. JAK2 LanthaScreen JH2-V617F Binding Assay
JAK2 JH2-V617F binding assay utilizes pseudo-kinase domain (JH2, amino-acids 536-812 with 3 surface mutations W659A, W777A, F794H) of human V617F mutant JAK2 expressed as C-terminal His-Avi-tagged, biotinylated protein in a baculovirus expression system (BPS Bioscience, Catalog #79498). The assay was conducted in black 384-well polystyrene plates in a final reaction volume of 20 μL. JAK2 JH2-V617F (0.26 nM) was incubated with compounds (100 nL serially diluted in DMSO) in the presence of 50 nM Fluorescent JAK2-JH2 Tracer (MedChem Express Catalog #HY-102055) and 0.25 nM Streptavidin-Tb cryptate (Cisbio Part #610SATLB) in assay buffer (50 mM Tris, pH=7.5, 10 mM MgCl2, 0.01% Brij-35, 0.1% BSA, 1 mM EGTA, 5% Glycerol and 5 mM DTT). Non-specific binding was accessed in the presence of 2 mM ATP. After incubation for 1 hour at 25° C., LanthaScreen signals were read on a PHERAstar FS plate reader (BMG LABTECH). Data was analyzed with IDBS XLfit and GraphPad Prism 5.0 software using a four parameter dose response curve to determine IC50 for each compound.

T1 sequence (O60674 849-1124 limits assumed): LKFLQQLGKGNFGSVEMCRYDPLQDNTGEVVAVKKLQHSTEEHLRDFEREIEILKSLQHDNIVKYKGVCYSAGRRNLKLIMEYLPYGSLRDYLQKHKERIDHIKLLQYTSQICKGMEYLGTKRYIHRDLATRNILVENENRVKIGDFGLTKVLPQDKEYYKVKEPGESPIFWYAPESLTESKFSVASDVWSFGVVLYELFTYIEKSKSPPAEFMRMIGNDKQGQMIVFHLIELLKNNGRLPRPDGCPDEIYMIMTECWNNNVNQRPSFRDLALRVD
T2 sequence (O60674 536-812 V617F/W659A/W777A/F794H): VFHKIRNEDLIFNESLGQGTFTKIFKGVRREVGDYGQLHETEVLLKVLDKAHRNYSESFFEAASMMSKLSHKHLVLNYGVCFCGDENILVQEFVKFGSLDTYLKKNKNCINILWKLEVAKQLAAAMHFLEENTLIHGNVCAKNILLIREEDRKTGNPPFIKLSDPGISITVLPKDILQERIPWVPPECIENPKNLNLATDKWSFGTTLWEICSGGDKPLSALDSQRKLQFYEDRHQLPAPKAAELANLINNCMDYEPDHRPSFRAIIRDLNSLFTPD

Row | SMILES | IC50 [1] [nM] | IC50 [2] [nM]
1 | COc1c(-c2cnn(C3CN(Cc4cccc(C(=O)N(C)C)n4)C3)c2)cccc1-c1cnc(N)c2cnc(NC(=O)C3CC3)cc12 [Example 16, 6-((3-(4-(3-(1-Amino-6-(cyclopropanecarboxamido)-2,7-naphthyridin-4-yl)-2-methoxyphenyl)-1H-pyrazol-1-yl)azetidin-1-yl)methyl)-N,N-dimethylpicolinamide] | 10 to 100 | ≤ 10
2 | COc1c(-c2cnn(C3CN(Cc4cccc(C(=O)N(C)CC(F)(F)F)n4)C3)c2)cccc1-c1cnc(N)c2cnc(NC(=O)C3CC3)cc12 [Example 17, 6-((3-(4-(3-(1-Amino-6-(cyclopropane-carboxamido)-2,7-naphthyridin-4-yl)-2-methoxyphenyl)-1H-pyrazol-1-yl)azetidin-1-yl)methyl)-N-methyl-N-(2,2,2-trifluoroethyl) picolinamide] | 10 to 100 | ≤ 10
3 | COc1c(-c2cnn(C3CN(Cc4cccc(C(=O)N5CCCC5)n4)C3)c2)cccc1-c1cnc(N)c2cnc(NC(=O)C3CC3)cc12 [Example 18, N-(8-Amino-5-(2-methoxy-3-(1-(1-((6-(pyrrolidine-1-carbonyl)pyridin-2-yl)methyl)azetidin-3-yl)-1H-pyrazol-4-yl)phenyl)-2,7-naphthyridin-3-yl)cyclopropane-carboxamide] | 10 to 100 | ≤ 10
4 | COc1c(-c2cnn(C3CN(Cc4cccc(C(=O)N5CCC(F)(F)C5)n4)C3)c2)cccc1-c1cnc(N)c2cnc(NC(=O)C3CC3)cc12 [Example 19, N-(8-amino-5-(3-(1-(1-((6-(3,3-difluoro-pyrrolidine-1-carbonyl)pyridin-2-yl)methyl)azetidin-3-yl)-1H-pyrazol-4-yl)-2-methoxy-phenyl)-2,7-naphthyridin-3-yl)cyclopropane-carboxamide] | 10 to 100 | ≤ 10
5 | COc1c(-c2cnn(C3CN(Cc4cccc(C(=O)N5CCOCC5)n4)C3)c2)cccc1-c1cnc(N)c2cnc(NC(=O)C3CC3)cc12 [Example 20, N-(8-amino-5-(2-methoxy-3-(1-(1-((6-(morpholine-4-carbonyl)pyridin-2-yl)methyl)azetidin-3-yl)-1H-pyrazol-4-yl)phenyl)-2,7-naphthyridin-3-yl)cyclopropane-carboxamide] | 100 to 500 | ≤ 10
6 | COc1c(-c2cnn(C3CN(Cc4ccccn4)C3)c2)cccc1-c1cnc(N)c2cnc(NC(=O)C3CC3)cc12 [Example 21, N-(8-Amino-5-(2-methoxy-3-(1-(1-(pyridin-2-ylmethyl)azetidin-3-yl)-1H-pyrazol-4-yl)phenyl)-2,7-naphthyridin-3-yl)cyclopropanecarboxamide] | 100 to 500 | ≤ 10
7 | COC(=O)c1cccc(CN2CC(n3cc(-c4cccc(-c5cnc(NC(C)=O)c6cnc(NC(=O)C7CC7)cc56)c4OC)cn3)C2)n1 [Example 22, Methyl 6-((3-(4-(3-(1-acetamido-6-(cyclopropanecarboxamido)-2,7-naphthyridin-4-yl)-2-methoxyphenyl)-1H-pyrazol-1-yl)azetidin-1-yl)methyl)picolinate] | > 1000 | ≤ 10
8 | CNc1ncc(-c2cccc(-c3ccc(C(=O)N(C)Cc4ccccn4)nc3)c2OC)c2cc(NC(=O)C3CC3)ncc12 [Example 23, 5-(3-(6-(Cyclopropanecarboxamido)-1-(methylamino)-2,7-naphthyridin-4-yl)-2-methoxyphenyl)-N-methyl-N-(pyridin-2-ylmethyl)picolinamide] | > 1000 | 10 to 100
9 | CNc1ncc(-c2cccc(-c3cnn(C4CN(CC56CCCC(C(=O)N(C)C)(C5)C6)C4)c3)c2OC)c2cc(NC(=O)C3CC3)ncc12 [Example 24, 5-((3-(4-(3-(6-(Cyclopropanecarboxamido)-1-(methylamino)-2,7-naphthyridin-4-yl)-2-methoxyphenyl)-1H-pyrazol-1-yl)azetidin-1-yl)methyl)-N,N-dimethylbicyclo[3.1.1]heptane-1-carboxamide] | > 1000 | 10 to 100
